Source: US20170334899A1, “AMINO-SUBSTITUTED ISOTHIAZOLES” (Bayer Pharma Aktiengesellschaft, priority 2014, published 2017)
Values joined by “and” are separate entries in the source; they are usually repeats but may differ in a detail not shown here. Equal entries are not always repeated.

Tests used:
[1] = molecular target: T1, catalytic domain of human Bub1 (amino acids 704-1085) (Homo sapiens, UniProt O43683); assay: Bub1 kinase assay (TR-FRET); format: biochemical; settings: 10 μM ATP, avg, read-out: Bub1 avg (IC50 [mol/l])
T1 construct: catalytic domain of human Bub1 (amino acids 704-1085); His6 (N); made in house; host or cells: insect cells (Hi5)
T1 sequence (O43683 704-1085): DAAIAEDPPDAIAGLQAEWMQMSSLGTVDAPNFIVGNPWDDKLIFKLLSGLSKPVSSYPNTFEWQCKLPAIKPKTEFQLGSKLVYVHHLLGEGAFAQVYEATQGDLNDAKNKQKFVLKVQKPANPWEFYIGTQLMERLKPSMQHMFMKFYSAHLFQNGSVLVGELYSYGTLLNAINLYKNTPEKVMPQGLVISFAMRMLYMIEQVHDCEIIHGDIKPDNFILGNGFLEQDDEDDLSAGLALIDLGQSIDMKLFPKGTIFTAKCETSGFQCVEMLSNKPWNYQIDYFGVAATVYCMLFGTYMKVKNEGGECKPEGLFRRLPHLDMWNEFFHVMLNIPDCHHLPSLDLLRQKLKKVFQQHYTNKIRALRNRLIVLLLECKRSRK
Procedure, shortened: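 Readout is the 665/620 nm TR-FRET ratio from anti-phosphoserine antibody, Eu-labelled anti-mouse IgG and streptavidin-XL665, scaled between no-enzyme and uninhibited controls. Reaction: 1 μM biotinylated peptide, 10 μM ATP, 60 min, 22 °C, after 15 min compound preincubation with His6-Bub1 (704-1085, insect-expressed, ~200 ng/ml).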

CDK2/CycE = molecular target: T2, CDK2/CycE (Homo sapiens, UniProt P24941); assay: CDK2/CycE kinase assay (TR-FRET); format: biochemical; settings: avg, read-out: CDK2 avg (IC50 [mol/l])
T2 construct: GST; purchased ProQinase GmbH (Freiburg, Germany); host or cells: insect cells (Sf9)
Procedure, shortened: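 GST-tagged human CDK2 and CycE from Sf9 cells, preincubated 15 min with compound, then 25 min at 22° C. with 10 μM ATP and 0.75 μM biotinylated Rb-derived peptide (final). Phospho-substrate read by TR-FRET (anti-pRB pSer807/pSer811, Eu anti-mouse IgG, streptavidin-XL665), 665/620 nm ratio, normalised to no-inhibitor and no-enzyme controls.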

IC50 [1] | IC50 (CDK2/CycE) | SMILES
> 20 µM | > 20 µM | Cc1nsc(Nc2cnc(C(F)(F)F)cn2)c1C(=O)Nc1ccc(OCCN)c(F)c1 [Example 221, 3-N-[4-(2-aminoethoxy)-3-fluorophenyl]-3-methyl-5-{[5-(trifluoromethyl)pyrazin-2-yl]amino}-1,2-thiazole-4-carboxamide]
> 20 µM | > 20 µM | Cc1nsc(Nc2cnc3ccccc3n2)c1C(=O)Nc1ccc(NCCC(=O)OC(C)(C)C)nc1 [Example 236, tert-butyl N-[5-({[3-methyl-5-(quinoxalin-2-ylamino)-1,2-thiazol-4-yl]carbonyl}amino)pyridin-2-yl]-beta-alaninate]
> 20 µM | > 20 µM | COc1ccc(NC(=O)c2c(C)nsc2Nc2cnc3ccccc3n2)c(CC#N)n1 [Example 235, N-[2-(cyanomethyl)-6-methoxypyridin-3-yl]-3-methyl-5-(quinoxalin-2-ylamino)-1,2-thiazole-4-carboxamide]
> 20 µM | > 20 µM | CCN(CC)CCNC(=O)c1cccc(NC(=O)c2c(C)nsc2Nc2cnccn2)c1 [Example 247, N-(3-{[2-(diethylamino)ethyl]carbamoyl}phenyl)-3-methyl-5-(pyrazin-2-ylamino)-1,2-thiazole-4-carboxamide]
> 20 µM | > 20 µM | Cc1cc(C)n(-c2ccccc2NC(=O)c2c(C)nsc2Nc2cnc3ccccc3n2)n1 [Example 243, N-[2-(3,5-dimethyl-1H-pyrazol-1-yl)phenyl]-3-methyl-5-(quinoxalin-2-ylamino)-1,2-thiazole-4-carboxamide]
> 20 µM | > 20 µM | Cc1nsc(Nc2cnc3ccccc3n2)c1C(=O)Nc1ccc(NC2CCN(C(=O)OC(C)(C)C)CC2)nc1 [Example 234, tert-butyl 4-{[5-({[3-methyl-5-(quinoxalin-2-ylamino)-1,2-thiazol-4-yl]carbonyl}amino)pyridin-2-yl]amino}piperidine-1-carboxylate]
> 20 µM | > 20 µM | Cc1nsc(Nc2ccc(C#N)cn2)c1C(=O)Nc1ccc(S(C)(=O)=O)cc1 [Example 246, 5-[(5-cyanopyridin-2-yl)amino]-3-methyl-N-[4-(methylsulfonyl)phenyl]-1,2-thiazole-4-carboxamide]
> 20 µM | > 20 µM | CNS(=O)(=O)c1ccc(NC(=O)c2c(C)nsc2Nc2cnc(C(F)(F)F)cn2)cc1 [Example 212, 3-methyl-N-[4-(methylsulfamoyl)phenyl]-5-{[5-(trifluoromethyl)pyrazin-2-yl]amino}-1,2-thiazole-4-carboxamide]
> 20 µM | > 20 µM | Cc1nsc(Nc2cnc(C(F)(F)F)cn2)c1C(=O)Nc1ccc(OCC2CCCN(C(=O)OC(C)(C)C)C2)nc1 (centres unmarked) [Example 228, tert-butyl 3-{[(5-{[(3-methyl-5-{[5-(trifluoromethyl)pyrazin-2-yl]amino}-1,2-thiazol-4-yl)carbonyl]amino}pyridin-2-yl)oxy]methyl}piperidine-1-carboxylate]
> 20 µM | > 20 µM | Cc1nsc(Nc2cncc(C(F)(F)F)n2)c1C(=O)Nc1ccc(OCC2CCN(C(=O)OC(C)(C)C)CC2)nc1 [Example 226, tert-butyl 4-{[(5-{[(3-methyl-5-{[6-(trifluoromethyl)pyrazin-2-yl]amino}-1,2-thiazol-4-yl)carbonyl]amino}pyridin-2-yl)oxy]methyl}piperidine-1-carboxylate]
> 20 µM | > 20 µM | Cc1nsc(Nc2cnc(C(F)(F)F)cn2)c1C(=O)Nc1ccc(F)c(OC2CCN(C(=O)OC(C)(C)C)CC2)c1 [Example 229, tert-butyl 4-(2-fluoro-5-{[(3-methyl-5-{[5-(trifluoromethyl)pyrazin-2-yl]amino}-1,2-thiazol-4-yl)carbonyl]amino}phenoxy)piperidine-1-carboxylate]
> 20 µM | > 20 µM | CNC(=O)c1ccc(NC(=O)c2c(C)nsc2Nc2ccc(C#N)cn2)cc1F [Example 208, 5-[(5-cyanopyridin-2-yl)amino]-N-[3-fluoro-4-(methylcarbamoyl)phenyl]-3-methyl-1,2-thiazole-4-carboxamide]
> 20 µM | > 20 µM | Cc1nsc(Nc2cnc(C(F)(F)F)cn2)c1C(=O)Nc1ccc(OC2CCN(C(=O)OC(C)(C)C)CC2)c(F)c1 [Example 217, tert-butyl 4-(2-fluoro-4-{[(3-methyl-5-{[5-(trifluoromethyl)pyrazin-2-yl]amino}-1,2-thiazol-4-yl)carbonyl]amino}phenoxy)piperidine-1-carboxylate]
> 20 µM | > 20 µM | COC(=O)c1cc(NC(=O)c2c(C)nsc2Nc2cnc3ccccc3n2)cc(C(=O)OC)c1 [Example 237, dimethyl 5-({[3-methyl-5-(quinoxalin-2-ylamino)-1,2-thiazol-4-yl]carbonyl}amino)isophthalate]
> 20 µM | > 20 µM | Cc1nsc(Nc2cncc(C(F)(F)F)n2)c1C(=O)Nc1ccc(OCCCN)nc1 [Example 209, N-[6-(3-aminopropoxy)pyridin-3-yl]-3-methyl-5-{[6-(trifluoromethyl)pyrazin-2-yl]amino}-1,2-thiazole-4-carboxamide]
> 20 µM | > 20 µM | Cc1nsc(Nc2cncc(C(F)(F)F)n2)c1C(=O)Nc1ccc(C(=O)NC2CCN(C(=O)OC(C)(C)C)CC2)cc1 [Example 222, tert-butyl 4-[(4-{[(3-methyl-5-{[6-(trifluoromethyl)pyrazin-2-yl]amino}-1,2-thiazol-4-yl)carbonyl]amino}benzoyl)amino] piperidine-1-carboxylate]

The remaining lines, values behind:

SMILES | IC50 [1] | IC50 (CDK2/CycE)
CCN(CC)CCNC(=O)c1cccc(NC(=O)c2c(C)nsc2Nc2cc(C#N)ccn2)c1 [Example 174, 5-[(4-cyanopyridin-2-yl)amino]-N-(3-{[2-(diethylamino)ethyl]carbamoyl}phenyl)-3-methyl-1,2-thiazole-4-carboxamide] | > 20 µM | > 20 µM
Cc1nsc(Nc2cncc(C(F)(F)F)n2)c1C(=O)Nc1ccc(OCCNC(=O)OC(C)(C)C)nc1 [Example 191, tert-butyl {2-[(5-{[(3-methyl-5-{[6-(trifluoromethyl)pyrazin-2-yl]amino}-1,2-thiazol-4-yl)carbonyl]amino}pyridin-2-yl)oxy]ethyl}carbamate] | > 20 µM | 18 µM
Cc1nsc(Nc2cc(C#N)ccn2)c1C(=O)Nc1ccc(OCCC(=O)OC(C)(C)C)nc1 [Example 200, tert-butyl 3-({5-[({5-[(4-cyanopyridin-2-yl)amino]-3-methyl-1,2-thiazol-4-yl}carbonyl)amino]pyridin-2-yl}oxy)propanoate] | > 20 µM | > 20 µM
Cc1nsc(Nc2cncc(C(F)(F)F)n2)c1C(=O)Nc1cccc(S(C)(=O)=O)c1 [Example 194, 3-methyl-N-[3-(methylsulfonyl)phenyl]-5-{[6-(trifluoromethyl)pyrazin-2-yl]amino}-1,2-thiazole-4-carboxamide] | > 20 µM and 11 µM and 19 µM | > 20 µM and 7.8 µM
Cc1nsc(Nc2cnc3ccccc3n2)c1C(=O)Nc1ccc(NC(=O)C(C)(C)C)cc1 [Example 185, N-{4-[(2,2-dimethylpropanoyl)amino]phenyl}-3-methyl-5-(quinoxalin-2-ylamino)-1,2-thiazole-4-carboxamide] | > 20 µM | > 20 µM
Cc1nsc(Nc2cnc(C(F)(F)F)cn2)c1C(=O)Nc1ccc(OCCN)nc1 [Example 197, N-[6-(2-aminoethoxy)pyridin-3-yl]-3-methyl-5-{[5-(trifluoromethyl)pyrazin-2-yl]amino}-1,2-thiazole-4-carboxamide] | 9.1 µM | > 20 µM
Cc1nsc(Nc2ccc(C#N)cn2)c1C(=O)Nc1ccc(OCCC(=O)OC(C)(C)C)nc1 [Example 199, tert-butyl 3-({5-[({5-[(5-cyanopyridin-2-yl)amino]-3-methyl-1,2-thiazol-4-yl}carbonyl)amino]pyridin-2-yl}oxy)propanoate] | > 20 µM | > 20 µM
Cc1nsc(Nc2cncc(C(F)(F)F)n2)c1C(=O)Nc1ccc(OC2CCN(CCF)CC2)nc1 [Example 14, N-(6-{[1-(2-Fluoroethyl)piperidin-4-yl]oxy}pyridin-3-yl)-3-methyl-5-{[6-(trifluoro-methyl)pyrazin-2-yl]amino}-1,2-thiazole-4-carboxamide] | ≥ 20 µM | 13 µM
Cc1nsc(Nc2cc(C#N)ccn2)c1C(=O)Nc1ccc(C(=O)OC(C)(C)C)cc1 [Example 182, tert-butyl 4-[({5-[(4-cyanopyridin-2-yl)amino]-3-methyl-1,2-thiazol-4-yl}carbonyl)amino]benzoate] | > 20 µM | > 20 µM
CNC(=O)c1ccc(NC(=O)c2c(C)nsc2Nc2cnc3ccccc3n2)cc1F [Example 207, N-[3-fluoro-4-(methylcarbamoyl)phenyl]-3-methyl-5-(quinoxalin-2-ylamino)-1,2-thiazole-4-carboxamide] | > 20 µM | > 20 µM
Cc1nsc(Nc2cc(C#N)ccn2)c1C(=O)Nc1cccc(NC(=O)C(C)(C)C)c1 [Example 183, 5-[(4-cyanopyridin-2-yl)amino]-N-{3-[(2,2-dimethylpropanoyl)amino]phenyl}-3-methyl-1,2-thiazole-4-carboxamide] | > 20 µM | > 20 µM
COC(=O)CCc1cccc(NC(=O)c2c(C)nsc2Nc2ccc(C#N)cn2)c1 [Example 176, methyl 3-{3-[({5-[(5-cyanopyridin-2-yl)amino]-3-methyl-1,2-thiazol-4-yl}carbonyl)amino]phenyl}propanoate] | > 20 µM | > 20 µM
